Tests used:
Format in all cases: in vivo
Amaranthus retroflexus = assay: Pre-emergence herbicidal efficacy, AMARE; conditions: scored visually after about 3 weeks vs untreated controls
Excerpt: (§1) C.1 Pre-Emergence Herbicidal Action and Crop Plant Compatibility
(§2) Seeds of monocotyledonous and dicotyledonous weed plants and crop plants are placed in plastic or organic planting pots and covered with soil. The compounds of the invention, formulated in the form of wettable powders (WP) or as emulsion concentrates (EC), are then applied onto the surface of the covering soil as aqueous suspension or emulsion with addition of 0.5% additive at a water application rate of […] (converted). After the treatment, the pots are placed in a greenhouse and kept under good growth conditions for the trial plants. After about 3 weeks, the effect of the preparations is scored visually in comparison with untreated controls as percentages. For example, 100% activity=the plants have died, 0% activity=like control plants.
(§3) ABUTH: Abutilon theophrasti ALOMY: Alopecurus myosuroides AMARE: Amaranthus retroflexus AVEFA: Avena fatua CYPES: Cyperus esculentus ECHCG: Echinochloa crus-galli LOLMU: Lolium multiflorum MATIN: Matricaria inodora PHBPU: Ipomoea purpurea POLCO: Polygonum convolvulus SETVI: Setaria viridis STEME: Stellaria media VERPE: Veronica persica VTOTR: Viola tricolor

Matricaria inodora = assay: Pre-emergence herbicidal efficacy, MATIN
Excerpt: as §1, §2, §3

Polygonum convolvulus = assay: Pre-emergence herbicidal efficacy, POLCO; conditions: scored visually after about 3 weeks vs untreated controls
Excerpt: as §1, §2, §3

Stellaria media = assay: Pre-emergence herbicidal efficacy, STEME
Excerpt: as §1, §2, §3

Viola tricolor = assay: Pre-emergence herbicidal efficacy, VIOTR
Excerpt: as §1, §2, §3

Veronica persica = assay: Pre-emergence herbicidal efficacy, VERPE; conditions: scored visually after about 3 weeks vs untreated controls
Excerpt: as §1, §2, §3

Echinochloa crus-galli = assay: Pre-emergence herbicidal efficacy, ECHCG; conditions: Table B1, application rate 320 g/ha, scored visually after about 3 weeks vs untreated controls
Excerpt: as §1, §2, §3

Setaria viridis = assay: Pre-emergence herbicidal efficacy, SETVI; conditions: Table B1, application rate 320 g/ha, scored visually after about 3 weeks vs untreated controls
Excerpt: as §1, §2, §3

Abutilon theophrasti = assay: Pre-emergence herbicidal efficacy, ABUTH; conditions: Table B1, application rate 320 g/ha, scored visually after about 3 weeks vs untreated controls
Excerpt: as §1, §2, §3

[1] = Table B2, application rate 320 g/ha
[2] = Table B2, application rate 320 g/ha, scored visually after about 3 weeks vs untreated controls
[3] = application rate 320 g/ha, scored visually after about 3 weeks
[4] = Table B1, application rate 320 g/ha
[5] = Table B1, application rate 320 g/ha, scored visually after about 3 weeks vs untreated controls

SMILES | Herbicidal efficacy against AMARE (Amaranthus retroflexus; [1]) [%] | Herbicidal efficacy against MATIN (Matricaria inodora; [2]) [%] | Herbicidal efficacy against POLCO (Polygonum convolvulus; [1]) [%] | Herbicidal efficacy against STEME (Stellaria media; [2]) [%] | Herbicidal efficacy against VIOTR (Viola tricolor; [2]) [%] | Herbicidal efficacy against VERPE (Veronica persica; [1]) [%] | Herbicidal efficacy against MATIN (Matricaria inodora; [3]) [%] | Herbicidal efficacy against STEME (Stellaria media; [3]) [%] | Herbicidal efficacy against VIOTR (Viola tricolor; [3]) [%] | Herbicidal efficacy against ECHCG (Echinochloa crus-galli) [%] | Herbicidal efficacy against SETVI (Setaria viridis) [%] | Herbicidal efficacy against ABUTH (Abutilon theophrasti) [%] | Herbicidal efficacy against AMARE (Amaranthus retroflexus; [4]) [%] | Herbicidal efficacy against MATIN (Matricaria inodora; [5]) [%] | Herbicidal efficacy against POLCO (Polygonum convolvulus; [4]) [%] | Herbicidal efficacy against STEME (Stellaria media; [5]) [%] | Herbicidal efficacy against VIOTR (Viola tricolor; [5]) [%] | Herbicidal efficacy against VERPE (Veronica persica; [4]) [%]
Cc1ccc2c(c1)C(Nc1nc3n(n1)CCCS3)CCC2 (racemic) [Example I-207] | 100 | 100 | 100 | 100 | 100 | 100 | – | – | – | – | – | – | – | – | – | – | – | –
Cc1ccc2c(c1)[C@H](Nc1nc3n(n1)CCN(C(=O)C1CCCCC1)C3)CCC2 [Example I-187] | 100 | 90 | 100 | 100 | 100 | 100 | – | – | – | – | – | – | – | – | – | – | – | –
Cc1ccc2c(c1)[C@H](Nc1nc3n(n1)CCN(S(=O)(=O)C1CCCC1)C3)[C@@H](C)C2 [Example I-193] | 100 | 90 | 100 | 100 | 100 | 100 | – | – | – | – | – | – | – | – | – | – | – | –
Cc1ccc2c(c1)[C@H](Nc1nc3n(n1)CCN(S(=O)(=O)C1CCCC1)C3)CCC2 [Example I-201] | 100 | 90 | 100 | 100 | 100 | 100 | – | – | – | – | – | – | – | – | – | – | – | –
Cc1ccc2c(c1)[C@H](Nc1nc3n(n1)CCN(S(=O)(=O)c1ccccc1Cl)C3)CCC2 [Example I-203] | 100 | 90 | 100 | 100 | 100 | 100 | – | – | – | – | – | – | – | – | – | – | – | –
Cc1ccc2c(c1)C(Nc1nc3n(n1)CCCS3(=O)=O)CCC2 (stereo not drawn) [Example I-239] | 100 | 100 | 100 | 100 | 100 | 100 | – | – | – | – | – | – | – | – | – | – | – | –
[O-][S+]1CCCCn2nc(NC3CCc4ccccc43)nc21 (stereo not drawn) [Example I-250] | 100 | 100 | 100 | 100 | 100 | 90 | 100 | 100 | 100 | – | – | – | – | – | – | – | – | –
O=S1(=O)CCCCn2nc(NC3CCCc4ccccc43)nc21 (stereo not drawn) [Example I-253] | 100 | 100 | 100 | 100 | 100 | 100 | 100 | 100 | 100 | – | – | – | – | – | – | – | – | –
CN1C(=O)CCn2nc(NC3CCCc4ccccc43)nc21 (stereo not drawn) [Example I-278] | 100 | 100 | 100 | 100 | 100 | 100 | 80 | 80 | 90 | – | – | – | – | – | – | – | – | –
Cc1ccc2c(c1)C(Nc1nc3n(n1)CCCN3S(C)(=O)=O)CC2 (stereo not drawn) [Example I-301] | 100 | 100 | 80 | 100 | 100 | 90 | – | – | – | – | – | – | – | – | – | – | – | –
Cc1ccc2c(c1)C(Nc1nc3n(n1)CCC(=O)N3C(C)C)CCC2 (stereo not drawn) [Example I-316] | – | 100 | 100 | 100 | 100 | 100 | 100 | 100 | 100 | – | – | – | – | – | – | – | – | –
Cc1ccc2c(c1)C(Nc1nc3n(n1)CCCN3S(C)(=O)=O)CCC2 (stereo not drawn) [Example I-329] | 100 | 100 | 100 | 100 | 100 | 100 | – | – | – | – | – | – | – | – | – | – | – | –
O=S(=O)(C1CC1)N1CCCn2nc(NC3CCCc4ccccc43)nc21 (stereo not drawn) [Example I-333] | 100 | – | 100 | 100 | 100 | 100 | – | – | – | – | – | – | – | – | – | – | – | –
Cc1ccc2c(c1)[C@H](Nc1nc3n(n1)CCCS3)CC2 [Example I-347] | – | – | – | – | – | – | – | – | – | 100 | 100 | 100 | 100 | 100 | 100 | 100 | 100 | 100
c1ccc2c(c1)CCC[C@H]2Nc1nc2n(n1)CCCS2 [Example I-349] | 100 | 100 | 100 | 100 | 100 | 100 | – | – | – | – | – | – | – | – | – | – | – | –
Cc1ccc2c(c1)C(Nc1nc3n(n1)CCC[S+]3[O-])C(C)C2 (stereo not drawn) [Example I-360] | – | – | – | – | – | – | – | – | – | 90 | 100 | 100 | 100 | 100 | 100 | 100 | 100 | 100
[O-][S+]1CCCn2nc(N[C@@H]3CCCc4ccccc43)nc21 (stereo partly drawn) [Example I-361] | 100 | 100 | 100 | 100 | 100 | 100 | – | – | – | – | – | – | – | – | – | – | – | –
CC1CCc2ccccc2C1Nc1nc2n(n1)CCC[S+]2[O-] (stereo not drawn) [Example I-362] | 100 | 100 | 100 | 100 | 100 | 100 | – | – | – | – | – | – | – | – | – | – | – | –
O=S1(=O)CCCCn2nc(N[C@@H]3CCc4ccccc43)nc21 [Example I-364, N-[(1R)-indan-1-yl]-4,4-dioxo-5,6,7,8-tetrahydro-[1,2,4]triazolo[5,1-b][1,3]thiazepin-2-amine] | 100 | 100 | 100 | 100 | 100 | 100 | – | – | – | – | – | – | – | – | – | – | – | –
CC1CCc2ccccc2C1Nc1nc2n(n1)CCCCS2(=O)=O (stereo not drawn) [Example I-368] | 100 | 100 | – | 100 | 100 | 100 | – | – | – | – | – | – | – | – | – | – | – | –
CC1CCc2ccccc2C1Nc1nc2n(n1)CCCC[S+]2[O-] (stereo not drawn) [Example I-373] | 100 | 100 | 100 | 100 | 100 | 100 | – | – | – | – | – | – | – | – | – | – | – | –
Cc1ccc2c(c1)[C@H](Nc1nc3n(n1)CCCS3(=O)=O)CCO2 [Example I-378] | 100 | 100 | 100 | 100 | 100 | 100 | – | – | – | – | – | – | – | – | – | – | – | –

From patent US20200331904A1, “3-AMINO-[1,2,4]-TRIAZOLE DERIVATIVES AND THEIR USE FOR CONTROLLING UNDESIRED PLANT GROWTH” (Bayer CropScience Aktiengesellschaft, priority 2017, published 2020)
